`CCC1(C)OC(c2ccc(S(N)(=O)=O)cc2)=C(c2ccc(OC)c(F)c2)C1=O` (stereo not drawn) [Example 46, 5-{4-(Aminosulfonyl)phenyl}-2-ethyl-4-(3-fluoro-4-methoxyphenyl)-2-methyl-3(2H)-furanone] registered a melting point of 113 to 114 °C.

On to `CCC1(CC)OC(c2ccc(S(C)(=O)=O)cc2)=C(c2ccccc2)C1=O` [Example 47, 2,2-Diethyl-5-{4-(methylsulfonyl)phenyl}-4-phenyl-3(2H)-furanone], for which the melting point fell in the range of 139 to 140 °C.

In turn, `CC1(C)OC(c2ccc(S(N)(=O)=O)cc2)=C(c2cc3ccccc3o2)C1=O` [Example 30] showed a melting point of 143 to 145 °C.

`CNS(=O)(=O)c1ccc(C2=C(c3cccc(F)c3)C(=O)C(C)(C)O2)cc1` [Example 184, 2,2-Dimethyl-5-{4-(N-methylaminosulfonyl)phenyl}-4-(3-fluorophenyl)-3(2H)-furanone] returned a melting point of 176 to 177 °C.

In turn, `C[S+]([O-])c1ccc(C2=C(c3ccccc3)C(=O)C(C)(C)O2)c(F)c1` (stereo not drawn) [Example 327, 2,2-Dimethyl-5-{2-fluoro-4-(methylsulfinyl)phenyl}-4-phenyl-3(2H)-furanone] showed a melting point of 149 to 150 °C.

As to `CC1(C)OC(c2ccc(S(C)(=O)=O)c(F)c2)=C(c2ccc([N+](=O)[O-])cc2)C1=O` [Example 287, 2,2-dimethyl-4-(4-nitrophenyl)-5-{3-fluoro-4-(methylsulfonyl)-phenyl}-3(2H)-furanone], the melting point is 173 to 174 °C.

For the compound `Cc1cccc(C2=C(c3ccc(S(C)(=O)=O)cc3)OC3(CCCCC3)C2=O)c1` [Example 260, 3-(3-Methylphenyl)-2-{4-(methylsulfonyl)phenyl}-1-oxa-spiro[4,5]dec-2-en-4-one], the melting point was in the range of 154 to 155 °C.

For the compound `CC1(C)OC(c2ccc(S(N)(=O)=O)cc2)=C(c2cccc(-c3ccccc3)c2)C1=O` [Example 29, 5-{4-(Aminosulfonyl)phenyl}-4-(3-biphenyl)-2,2-dimethyl-3(2H)-furanone], the melting point fell in the range of 160 to 161 °C.

In the case of `CC1(C)OC(c2ccc(S(C)(=O)=O)cc2)=C(c2ccc3c(c2)OCO3)C1=O` [Example 8, 2,2-Dimethyl-4-(3,4-methylenedioxyphenyl)-5-{4-(methylsulfonyl)phenyl}-3(2H)-furanone], the melting point was 178 to 179 °C.

`CC1(C)OC(c2ccc(S(C)(=O)=O)cc2)=C(c2ccc(OC(F)(F)F)cc2)C1=O` [Example 7, 2,2-Dimethyl-5-{4-(methylsulfonyl)phenyl}-4-{4-(trifluoromethoxy)phenyl}-3(2H)-furanone] registered a melting point of 118 to 120 °C.

Compound `C[S+]([O-])c1ccc(C2=C(c3ccccc3)C(=O)C(C)(C)O2)c(Cl)c1` (stereo not drawn) [Example 391, 5-{2-Chloro-4-(methylsulfinyl)phenyl}-2,2-dimethyl-4-phenyl-3(2H)-furanone] had a melting point of 135 to 136 °C.

`CC1(C)OC(c2ccc(S(N)(=O)=O)cc2)=C(c2ccc3c(c2)OCO3)C1=O` [Example 27, 5-{4-(Aminosulfonyl)phenyl{-2,2-dimethyl-4-}3,4-(methylenedioxy)phenyl}-3(2H)-furanone] returned a melting point of 178 to 179 °C.

In turn, `CC1(C)OC(c2ccc(S(C)(=O)=O)cc2)=C(c2cc3ccccc3s2)C1=O` [Example 15, 4-(2-Benzo[b]thienyl)-2,2-dimethyl-5-{4-(methylsulfonyl)phenyl}-3(2H)-furanone] showed a melting point of 204 to 206 °C.

The compound `CC1(C)OC(c2ccc(S(C)(=O)=O)cc2)=C(c2ccc(F)c(Cl)c2)C1=O` [Example 2, 4-(3-Chloro-4-fluorophenyl)-2,2-dimethyl-5-{4-(methylsulfonyl)phenyl}-3(2H)-furanone] displayed a melting point of 162 to 164 °C.

In turn, `CSc1ccc(C2=C(c3ccc(S(C)(=O)=O)cc3)OC(C)(C)C2=O)cc1` [Example 72, 2,2-dimethyl-5-{4-(methylsulfonyl)phenyl}-4-{4-(methylthio)-phenyl}-3(2H)-furanone] registered a melting point of 137 to 141 °C.

As to `CCS(=O)(=O)c1ccc(C2=C(c3ccc(S(C)(=O)=O)cc3)OC(C)(C)C2=O)cc1` [Example 110, 2,2-Dimethyl-4-{4-(ethylsulfonyl)phenyl}-5-{4-(methylsulfonyl)phenyl}-3(2H)-furanone], the melting point was 198 to 203 °C.

`CC1(C)OC(c2ccc(S(N)(=O)=O)cc2)=C(c2cc3ccccc3s2)C1=O` [Example 28]: the melting point fell in the range of 120 to 121 °C.

On to `CC1(C)OC(c2ccc(S(C)(=O)=O)cc2)=C(c2cc3ccccc3o2)C1=O` [Example 16, 4-(2-Benzo[b]furanyl)-2,2-dimethyl-5-{4-(methylsulfonyl)phenyl}-3(2H)-furanone], for which the melting point was in the range of 140 to 141 °C.

Turning to `C[S+]([O-])c1ccc(C2=C(c3ccccc3)C(=O)C(C)(C)O2)cc1Cl` (stereo not drawn) [Example 363, 5-{3-Chloro-4-(methylsulfinyl)phenyl}-2,2-dimethyl-4-phenyl-3(2H)-furanone], the melting point lay within 120 to 121 °C.

Compound `CC(=O)c1ccc(C2=C(c3ccc(S(C)(=O)=O)cc3)OC3(CCCC3)C2=O)cc1` [Example 55, 3-(4-Acetylphenyl)-2-{4-(methylsulfonyl)phenyl}-1-oxa-spiro[4,4]non-2-en-4-one] registered a melting point of 126 to 130 °C.

For `CCSc1ccc(C2=C(c3ccc(S(C)(=O)=O)cc3)OC(C)(C)C2=O)cc1` [Example 88, 2,2-dimethyl-4-{4-(ethylthio)phenyl}-5-{4-(methylsulfonyl)-phenyl}-3(2H)-furanone], the melting point lay in the range of 103 to 105 °C.

Take `COc1c(C)cc(C2=C(c3ccc(S(C)(=O)=O)cc3)OC(C)(C)C2=O)cc1C` [Example 12, 2,2-Dimethyl-4-(3,5-dimethyl-4-methoxyphenyl)-5-{4-(methylsulfonyl)phenyl}-3(2H)-furanone]: the melting point was in the range of 130 to 131 °C.

`Cc1ccc(C2=C(c3ccc(S(C)(=O)=O)cc3)OC(C)(C)C2=O)cc1` [Example 1, 2,2-Dimethyl-4-(4methylphenyl)-5-{4-(methylsulfonyl)phenyl}-3(2H)-furanone] showed a melting point of 167 to 168 °C.

The compound `CSc1ccc(C2=C(c3cc(F)cc(F)c3)C(=O)C(C)(C)O2)cc1` [Example 173, 4-(3,5-difluorophenyl)-2,2-dimethyl-5-{4-(methylthio)-phenyl}-3(2H)-furanone] gave a melting point of 122 to 123 °C.

Take `CC1(C)OC(c2ccc(S(C)(=O)=O)cc2)=C(c2cccc3ccccc23)C1=O` [Example 13, 2,2-Dimethyl-5-{4-(methylsulfonyl)phenyl}-4-(1-naphthyl)-3(2H)-furanone]: the melting point was 194 to 195 °C.

Regarding `CC1(C)OC(c2ccc(S(C)(=O)=O)cc2)=C(c2cccnc2)C1=O` [Example 19, 2,2-Dimethyl-5-{4-(methylsulfonyl)phenyl}-4-(3-pyridyl)-3(2H)-furanone], the melting point is 164 to 166 °C.

Compound `CC1(C)OC(c2ccc(S(C)(=O)=O)cc2)=C(c2ccc(S(C)(=O)=O)cc2)C1=O` [Example 109, 2,2-Dimethyl-4,5-di{4-(methylsulfonyl)phenyl}-3(2H)-furanone] came in with a melting point of 245 to 257 °C.

In turn, `CCCC(=O)NS(=O)(=O)c1ccc(C2=C(c3cccc(F)c3)C(=O)C(C)(C)O2)cc1` [Example 183, 5-[4-{(n-Butyrylamino)sulfonyl}phenyl]-2,2-dimethyl-4-(3-fluorophenyl)-3(2H)-furanone] came in with a melting point of 188 to 189 °C.

Regarding `CSc1ccc(C2=C(c3cccc(F)c3)C(=O)C(C)(C)O2)cc1` [Example 166, 2,2-Dimethyl-4-(3-fluorophenyl)-5-{4-(methylthio)phenyl}-3(2H)-furanone], the melting point was found to be 106 °C.

On to `Cc1cc(C2=C(c3cccc(F)c3)C(=O)C(C)(C)O2)ccc1S(N)(=O)=O` [Example 380, 5-{4-(Aminosulfonyl)-3-methylphenyl}-2,2-dimethyl-4-(3-fluorophenyl)-3(2H)-furanone], for which the melting point is 81 to 82 °C.

Source of the values: patent publication US6492416B1, “4,5-diaryl-3(2H)-furanone derivatives as cyclooxygenase-2 inhibitors” (Pacific Corporation, priority 1999, dated 2002).
